# Experimental data reported in US10406126B2, “ALDH2 activator” (Eisai R&D Management Co., Ltd., priority 2018, dated 2019).
# Columns and labels:
# [1] = Experimental: (Comparison of Amounts of Produced Reactive Metabolites)
# Ability of compounds to produce reactive metabolites was evaluated, using the method as described below. Cytochrome P450 (CYP) dependent metabolism was initiated, by adding 1 mg/mL human liver microsome, 0.2 mmol/L compound, and 0.1 mmol/L RI-labeled capture agent, and lastly 1 mmol/L NADPH to 100 mM phosphate buffer (pH 7.4). After incubation at 37° C. for 60 minutes, the reaction mixture (0.1 mL) and an equal volume of acetonitrile were added to stop the metabolic reaction. After 0.8 mL of water was added to the supernatant from centrifugation, 0.5 mL of the resulting solution was injected into HPLC connected to a radio detector and a covalent complex between the reactive metabolite and Relabeled capture agent was quantitatively analyzed for its RI intensity.
# [2] = target: T1, aldehyde dehydrogenase 2 (ALDH2) (Homo sapiens, UniProt P05091); experiment: Effects of compounds on the acetaldehyde oxidation rate by ALDH2 (PicoProbe Aldehyde dehydrogenase Activity Assay Kit); format: biochemical; conditions: read-out: acetaldehyde oxidation rate (rate in the absence of the compounds = 100); for activity at 1 µM: compound concentration 1 μM; for activity at 10 µM: compound concentration 10 μM
# T1 construct: purchased ATGen Inc
# T1 sequence (P05091 18-517): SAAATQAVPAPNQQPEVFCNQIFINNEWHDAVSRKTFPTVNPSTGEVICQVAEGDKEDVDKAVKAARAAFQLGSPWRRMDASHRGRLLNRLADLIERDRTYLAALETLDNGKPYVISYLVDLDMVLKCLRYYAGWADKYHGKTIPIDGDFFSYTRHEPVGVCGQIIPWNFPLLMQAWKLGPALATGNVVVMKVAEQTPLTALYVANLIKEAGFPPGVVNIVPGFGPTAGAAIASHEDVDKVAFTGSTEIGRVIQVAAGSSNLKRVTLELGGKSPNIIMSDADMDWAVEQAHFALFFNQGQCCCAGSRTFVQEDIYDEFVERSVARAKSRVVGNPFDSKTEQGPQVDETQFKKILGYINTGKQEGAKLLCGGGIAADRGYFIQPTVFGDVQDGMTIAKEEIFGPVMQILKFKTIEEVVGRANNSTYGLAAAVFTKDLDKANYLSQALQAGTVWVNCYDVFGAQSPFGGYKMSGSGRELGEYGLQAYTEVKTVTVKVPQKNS
# Experimental: (Effects of Compounds on the Acetaldehyde Oxidation Rate by Aldehyde Dehydrogenase 2 (ALDH2))
# Effects of compounds on the acetaldehyde oxidation rate by aldehyde dehydrogenase 2 (ALDH2) were evaluated using a method known in the art. Specifically, the test was performed using a commercially available kit, PicoProbe™ Aldehyde dehydrogenase Activity Assay Kit (from BioVision Inc.) in accordance with the product's instruction. Reagents as described below were sequentially added to each well in a 384-well plate with a pipette.
# 1. 10 μL of the commercially available ALDH2 enzyme (from ATGen Inc.) dissolved in ALDH assay Buffer so as to obtain a concentration of 1 μg/mL.
# 2. 10 μL, of 30 μM or 3 μM compound solution (containing 3% DMSO) prepared with ALDH assay Buffer
# 3. […] of Reaction mix consisting of 7.82 μL of ALDH assay Buffer, 0.55 μL of PicoProbe, 0.27 μL of Substrate Mix, and 1.36 μL of Acetaldehyde
# Before addition of 3, the plate was incubated at room temperature for 5 minutes. After addition of 3, fluorescence was determined using EnVision 2101 Multilabel Reader (from PerkinElmer Inc.) at room, temperature over 60 minutes. The measurements were taken at interval of 2 minutes.
# Fluorescence was detected at an excitation wavelength of 535 nm and an emission wavelength of587 nm.
# Table 1 lists the oxidation rates when the compounds are added, in which the rates are calculated on the basis of the assumption that the acetaldehyde oxidation rates in the absence of the compounds are 100. The rate for Comparative Example 1 compound was normalized to a value of “175” for 10 μM of the compound concentration while the rate for Comparative Example 1 compound was normalized to a value of “137” for 1 μM of the compound concentration.
# [3] = system: mechanical allodynia induced by carrageenan in C57 BL/6J mice; experiment: Suppressive effect of pain induced by carrageenan (von Frey withdrawal score); format: in vivo, mouse; conditions: mean ± S.E.
# Experimental: (Suppressive Effect of Pain Induced by Carrageenan)
# This experiment was earned out with reference to Science Translational Medicine 6, 251 r118 (2014). Male C57 BL/6J mice (Charles River Japan) of 7-week-old were used. Carrageenan was subcutaneously administered to the mouse by intraplantar injection of the left hind paw to induce mechanical allodynia in the footpad. Mechanical stimulus-evoked withdrawal response at 180 min after the induction was assessed by applying a von Frey filament (ascending bending force 0.16 g) to the footpad, of the hind paw. The filament was perpendicularly applied to the footpad so that the filament was bent for 6 second. The withdrawal response was scored in three stages (0: no response or startle response (moving paw without lifting); 1: lifting of paw; 2: licking or shaking of paw). The mouse was stimulated ten times and the sum of the scores of the ten stimulation (withdrawal score) was calculated.
# The compound of Example 1 was dissolved in DMSO/5% glucose solution for injection (1:1 by volume ratio). […]
# Wilcoxon rank sum test was used to compare the vehicle-treated group and the Example 1-treated group. The significance level was calculated as 5%, divided into less than 5% (p<0.05) and less than 1% (p<0.01). […]
activity at 1 µM [2] [%],activity at 10 µM [2] [%],Structure (SMILES),"amount of reactive metabolites produced, in words [1]","Total pain-related score (withdrawal score) ([3]; 180 min after carrageenan induction, 12 mg/kg s.c. three times, **p < 0.01 vs vehicle)",Total pain-related score (withdrawal score) ([3]; Pre: before carrageenan induction)
137,175,"O=C(NCc1ccc2c(c1)OCO2)c1c(Cl)cccc1Cl [Comparative Example 1, N-[(2H-1,3-Benzodioxol-5-yl)methyl]-2,6-dichlorobenzamide, reference compound]",produces reactive metabolites as much as clozapine,–,–
125,164,"O=C(NCc1ccc2c(c1)OCCO2)c1c(Cl)cccc1Cl [Comparative Example 2, 2,6-dichloro-N-[(2,3-dihydro-1,4-benzodioxin-6-yl)methyl]benzamide, reference compound]",–,–,–
138,179,"COCc1ccc(CNC(=O)c2c(Cl)cccc2Cl)cc1F [Example 1, 2,6-Dichloro-N-{[3-fluoro-4-(methoxymethyl)phenyl]methyl}benzamide]",–,6.8 ± 1.0**,1.6 ± 0.2
125,168,"COCc1cc(F)c(CNC(=O)c2c(Cl)cccc2Cl)cc1F [Example 2, 2,6-Dichloro-N-{[3,6-difluoro-4-(methoxymethyl)phenyl]methyl}benzamide]",–,–,–
117,156,"COCc1ccc(CNC(=O)c2c(Cl)cccc2Cl)cc1 [Example 3, 2,6-Dichloro-N-[4-(methoxymethyl)benzyl]benzamide]",–,–,–
136,175,"COCc1ccc(CNC(=O)c2c(Cl)cccc2Cl)cc1C [Example 4, 2,6-Dichloro-N-{[4-(methoxymethyl)-3-methylphenyl]methyl}benzamide]",–,–,–
129,168,"COCc1ccc(CNC(=O)c2c(Cl)cccc2Br)cc1F [Example 5, 2-Bromo-6-chloro-N-{[3-fluoro-4-(methoxymethyl)phenyl]methyl}benzamide]",–,–,–
108,148,"COCc1ccc(CNC(=O)c2ccccc2Cl)cc1F [Example 6, 2-Chloro-N-{[3-fluoro-4-(methoxymethyl)phenyl]methyl}benzamide]",–,–,–
119,156,"COCc1ccc(CNC(=O)c2ccccc2Br)cc1F [Example 7, 2-Bromo-N-{[3-fluoro-4-(methoxymethyl)phenyl]methyl}benzamide]",–,–,–
128,165,"COCc1ccc(CNC(=O)c2c(F)cccc2Br)cc1F [Example 8, 2-Bromo-6-fluoro-N-{[3-fluoro-4-(methoxymethyl)phenyl]methyl}benzamide]",–,–,–
125,168,"COCc1ccc(CNC(=O)c2c(F)cccc2Cl)cc1F [Example 10, 2-Chloro-6-fluoro-N-{[3-fluoro-4-(methoxymethyl)phenyl]methyl}benzamide]",–,–,–
117,156,"COCc1ccc(CNC(=O)c2c(C)cccc2C)cc1F [Example 11, N-{[3-Fluoro-4-(methoxymethyl)phenyl]methyl}-2,6-dimethylbenzamide]",–,–,–
136,175,"COCc1ccc(CNC(=O)c2c(Cl)cccc2C(C)C)cc1F [Example 12, 2-Chloro-N-[3-fluoro-4-(methoxymethyl)benzyl]-6-isopropylbenzamide]",–,–,–
114,143,"COCc1ccc(CNC(=O)c2c(F)cccc2F)cc1F [Example 13, 2,6-Difluoro-N-{[3-fluoro-4-(methoxymethyl)phenyl]methyl}benzamide]",–,–,–
